# US20080213341A1, “Butyric Acid Esters of Carbohydrates and Carbohydrate Polyols” (priority 2005, published 2008)
# Read-outs that look alike come from different tables or passages of the source.
# Columns and labels:
# [1] = test system: intestinal bacteria of the human large intestine; assay: In vitro fermentation with intestinal bacteria of the human large intestine (feces suspension); assay type: in vitro ADME; details: for butyrate release/formation (in words): in vitro fermentation with human intestinal bacteria; for x-fold increase in the butyrate concentration in the fermentation medium in comparison to the nonesterified carbohydrate or carbohydrate polyol: in vitro fermentation; for increase of the butyrate in the fermentation broths: after a short fermentation time
# Protocol: It was investigated in in vitro fermentation experiments with intestinal bacteria of the human large intestine whether butyric acid esters listed above are hydrolyzed and metabolized by bacteria of the large intestine or their enzymes and butyrate is released in the […]. The following medium was used for in vitro fermentation experiments: [table] 9 ml of the […] medium described above were treated with 0.5% (w/v) of the butyric acid ester to be tested and 0.2% (w/v) of taurocholic acid. This medium was subsequently inoculated with 1 ml of a 10% strength feces suspension (mixed feces of three subjects) in anaerobic 50 mmol/l phosphate buffer, pH 7.0, to which 0.5 g/l of cysteine/HCl had been added as a reductant. Hungate tubes were incubated at 37° C. with shaking for 72 h, samples were taken at different times and these were investigated for short-chain fatty acids, lactic acid and pH. The extent of the metabolization of the test substances was carried out by means of the determination of the release of butyrate.
# [2] = oral administration / uptake via food; cited from earlier work
# colon cancer = details: orally administered; cited from earlier work
# [3] = 0.5% (w/v) substrate, human feces suspension, 37° C., 72 h
Compound,"g of butyrate/g of substrate [1, 3]",butyrate release/formation (in words) [1],x-fold increase in the butyrate concentration in the fermentation medium in comparison to the nonesterified carbohydrate or carbohydrate polyol ([1]; 72 h),also measured
Tributyrylxylitol,0.6 g of butyrate/g of substrate,Large amounts of butyrate were also released,2.2 x-fold,–
"CCCC(=O)O [butyrate, butyric acid]",–,–,–,cleavage / absorption in the small intestine [2]: rapidly and completely absorbed in the small intestine
Hexabutyrylsorbitol,0.2 g of butyrate/g of substrate,–,0.8 x-fold,–
Pentabutyrylxylitol,0.4 g of butyrate/g of substrate,Large amounts of butyrate were also released,1.5 x-fold,–
Tetrabutyryldiacetylsorbitol,–,–,–,g of butyrate/g of substrate [1]: 0.3 g of butyrate/g of substrate
Octabutyrylisomalt,0.1 g of butyrate/g of substrate,–,0.5 x-fold,"g of butyrate/g of substrate ([1]; 0.5% (w/v) substrate, human feces suspension, 37° C., 72 h, listed as octabutyrylisomalt): about 0.1 g of butyrate/g of substrate"
Heptabutyryldiacetylisomalt,0.1 g of butyrate/g of substrate,–,0.4 x-fold,"g of butyrate/g of substrate ([1]; 0.5% (w/v) substrate, human feces suspension, 37° C., 72 h, listed as heptabutyryldiacetylisomalt): about 0.1 g of butyrate/g of substrate"
CCCC(=O)OCC(COC(=O)CCC)OC(=O)CCC [tributyrin],–,–,–,cleavage / absorption in the small intestine [2]: rapidly cleaved in the anterior small intestine; activity in the prevention of colon cancer (colon cancer): inactive

# Now from value to compound, other results behind:
"g of butyrate/g of substrate [1, 3]",butyrate release/formation (in words) [1],x-fold increase in the butyrate concentration in the fermentation medium in comparison to the nonesterified carbohydrate or carbohydrate polyol ([1]; 72 h),Compound,also measured
0.7 g of butyrate/g of substrate,high butyrate formation,2.5 x-fold,Tetrabutyrylxylitol,"x-fold increase in the butyrate concentration in the fermentation medium in comparison to the nonesterified carbohydrate or carbohydrate polyol ([1]; 72 h, listed as tetrabutyrylxylitol): more than two-fold"
0.2 g of butyrate/g of substrate,–,1.3 x-fold,Pentabutyrylisomalt,–
0.7 g of butyrate/g of substrate,high butyrate formation,2.7 x-fold,Tetrabutyrylsorbitol,"increase of the butyrate in the fermentation broths [1]: strong increase; x-fold increase in the butyrate concentration in the fermentation medium in comparison to the nonesterified carbohydrate or carbohydrate polyol ([1]; 72 h, listed as tetrabutyrylsorbitol): more than twofold"
0.2 g of butyrate/g of substrate,–,–,Isomalt [reference compound],"g of butyrate/g of substrate ([1]; 0.5% (w/v) substrate, human feces suspension, 37° C., 72 h, listed as isomalt): approximately 0.2 g of butyrate/g of substrate"
0.7 g of butyrate/g of substrate,high butyrate formation,2.8 x-fold,Tributyrylsorbitol,"increase of the butyrate in the fermentation broths [1]: strong increase; x-fold increase in the butyrate concentration in the fermentation medium in comparison to the nonesterified carbohydrate or carbohydrate polyol ([1]; 72 h, listed as tributyrylsorbitol): more than twofold"
